Measured values reported in patent US7576112B2, “Therapeutic N-aryl or N-heteroaryl pyrazolidine and pyrazolidinone derivatives” (Allergan, Inc., priority 2006, dated 2009).

What was measured:
[1] = biological target: T1, EP2 (Homo sapiens, UniProt P43116); assay: EP2 flipr functional assay; assay type: cell-based
Source text: (§1) U.S. patent application Ser. No. 11/553,143, filed on Oct. 26, 2006, incorporated by reference herein, describes the methods used to obtain the in vitro data in the table below.

[2] = biological target: T1, EP2; assay: EP2 cAMP assay; assay type: cell-based
Source text: as §1

[3] = biological target: T1, EP2; assay: EP2 binding (Ki)
Source text: as §1

[4] = biological target: T2, hEP3A (Homo sapiens, UniProt P43115); assay: Other receptors functional assay, hEP3A; assay type: cell-based
T2 sequence (P43115 1-390): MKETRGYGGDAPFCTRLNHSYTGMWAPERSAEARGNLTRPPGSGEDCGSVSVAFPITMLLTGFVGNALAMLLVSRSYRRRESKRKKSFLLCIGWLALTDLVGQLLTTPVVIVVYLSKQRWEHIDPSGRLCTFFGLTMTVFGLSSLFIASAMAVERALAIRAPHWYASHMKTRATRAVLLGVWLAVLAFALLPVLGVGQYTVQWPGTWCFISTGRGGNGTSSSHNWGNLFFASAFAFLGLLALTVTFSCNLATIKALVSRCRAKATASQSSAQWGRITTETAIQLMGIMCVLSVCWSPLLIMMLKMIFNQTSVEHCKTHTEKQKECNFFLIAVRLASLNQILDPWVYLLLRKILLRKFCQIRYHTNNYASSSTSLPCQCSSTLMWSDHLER
Source text: as §1

[5] = biological target: EP4 (Homo sapiens, UniProt P35408); assay: EP4 binding (Ki)
Sequence of EP4 (P35408 whole entry): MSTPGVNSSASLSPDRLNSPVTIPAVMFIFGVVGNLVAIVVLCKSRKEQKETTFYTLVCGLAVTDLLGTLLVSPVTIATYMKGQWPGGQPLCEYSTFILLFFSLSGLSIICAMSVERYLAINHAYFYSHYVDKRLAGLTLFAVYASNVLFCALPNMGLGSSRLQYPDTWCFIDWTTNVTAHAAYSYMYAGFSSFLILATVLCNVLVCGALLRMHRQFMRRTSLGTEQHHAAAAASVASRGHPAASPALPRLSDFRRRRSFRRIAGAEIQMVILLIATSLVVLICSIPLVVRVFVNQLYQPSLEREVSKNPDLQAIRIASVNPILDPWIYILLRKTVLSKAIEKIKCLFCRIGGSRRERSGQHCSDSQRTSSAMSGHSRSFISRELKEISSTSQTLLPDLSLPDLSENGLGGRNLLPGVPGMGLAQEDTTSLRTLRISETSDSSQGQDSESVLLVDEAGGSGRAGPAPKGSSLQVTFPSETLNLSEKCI
Source text: as §1

T1 sequence (P43116 whole entry): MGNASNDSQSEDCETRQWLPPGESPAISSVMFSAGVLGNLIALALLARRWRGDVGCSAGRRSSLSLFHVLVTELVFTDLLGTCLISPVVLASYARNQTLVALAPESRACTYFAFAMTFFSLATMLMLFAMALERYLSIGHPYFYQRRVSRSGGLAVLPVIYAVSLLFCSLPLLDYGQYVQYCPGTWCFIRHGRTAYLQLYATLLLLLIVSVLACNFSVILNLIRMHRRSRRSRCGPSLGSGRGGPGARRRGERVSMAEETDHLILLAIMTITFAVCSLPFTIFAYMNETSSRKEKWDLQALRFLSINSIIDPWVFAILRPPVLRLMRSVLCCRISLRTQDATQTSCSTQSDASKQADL

EC50 [1]: 0.079 µM | EC50 [2]: 0.0018 µM | Ki [3]: 0.251 µM | EC50 [4]: 5070 nM | Ki [5]: > 10 µM
Compound: CCCCC[C@H](O)c1ccc(N2C(=O)CCN2CCCc2ccc(C(=O)O)s2)cc1 (stereo in doubt) [5-(3-(2-(4-(1-hydroxyhexyl)phenyl)-3-oxopyrazolidin-1-yl)propyl)thiophene-2-carboxylic Acid]
